Measured values taken from US20230399311A1, “POLYMORPHS OF SUBSTITUTED ISOQUINOLINE-BASED RHO KINASE INHIBITORS” (BioAxone BioSciences, Inc., priority 2022, published 2023).

Experiments:
[1] = pH-dependent stability in buffer solutions; type: physicochemical
Procedure: The solutions were stored in vials at 25° C., 40° C., and 60° C. […] Purity was measured by HPLC.

[2] = Partition coefficient, octanol/water; type: physicochemical
Procedure: The partition coefficient of NRL-1049 adipate was determined according to the following procedure. In a 500 mL separation funnel, 120 mL water and 120 mL octanol were combined, mixed well, and allowed to separate into two layers. Approximately 100 mL of the organic phase layer and approximately 100 mL from the aqueous phase layer were removed and utilized in the following steps. Three 100 mL separation funnels were labeled as Sample 1, Sample 2, and Sample 3. […] The P values were as follows: Sample 1=0.0053, Sample 2=0.0049, Sample 3=0.0050.

- Appearance ([1]; Acetate Buffer, 1 Wk, 25° C.): No change
- Purity (% Area) ([1]; Acetate Buffer, 1 Wk, 25° C.): 99.7 % Area
- pH ([1]; Acetate Buffer, 1 Wk, 25° C.): 4.8
- Appearance ([1]; Acetate Buffer, 1 Wk, 40° C.): No change
- Purity (% Area) ([1]; Acetate Buffer, 1 Wk, 40° C.): 99.7 % Area
- pH ([1]; Acetate Buffer, 1 Wk, 40° C.): 4.7
- Appearance ([1]; Acetate Buffer, 1 Wk, 60° C.): No change
- Purity (% Area) ([1]; Acetate Buffer, 1 Wk, 60° C.): 99.8 % Area
- pH ([1]; Acetate Buffer, 1 Wk, 60° C.): 4.7
- Appearance ([1]; Acetate Buffer, 2 Wk, 25° C.): No change
- Purity (% Area) ([1]; Acetate Buffer, 2 Wk, 25° C.): 99.7 % Area
- pH ([1]; Acetate Buffer, 2 Wk, 25° C.): 4.6
- Appearance ([1]; Acetate Buffer, 2 Wk, 40° C.): No change
- Purity (% Area) ([1]; Acetate Buffer, 2 Wk, 40° C.): 99.7 % Area
- pH ([1]; Acetate Buffer, 2 Wk, 40° C.): 4.5
- Appearance ([1]; Acetate Buffer, 2 Wk, 60° C.): No change
- Purity (% Area) ([1]; Acetate Buffer, 2 Wk, 60° C.): 99.7 % Area
- pH ([1]; Acetate Buffer, 2 Wk, 60° C.): 4.5
- Appearance ([1]; Acetate Buffer, 3 Wk, 25° C.): No change
- Purity (% Area) ([1]; Acetate Buffer, 3 Wk, 25° C.): 99.6 % Area
- pH ([1]; Acetate Buffer, 3 Wk, 25° C.): 4.6
- Appearance ([1]; Acetate Buffer, 3 Wk, 40° C.): No change
- Purity (% Area) ([1]; Acetate Buffer, 3 Wk, 40° C.): 99.7 % Area
- pH ([1]; Acetate Buffer, 3 Wk, 40° C.): 4.5
- Appearance ([1]; Acetate Buffer, 3 Wk, 60° C.): No change
- Purity (% Area) ([1]; Acetate Buffer, 3 Wk, 60° C.): 99.6 % Area
- pH ([1]; Acetate Buffer, 3 Wk, 60° C.): 4.5
- Appearance ([1]; Acetate Buffer, Time 0): Clear
- Purity (% Area) ([1]; Acetate Buffer, Time 0): 99.8 % Area
- pH ([1]; Acetate Buffer, Time 0): 4.6
- Appearance ([1]; Hydroxide Buffer, 1 Wk, 25° C.): No change
- Purity (% Area) ([1]; Hydroxide Buffer, 1 Wk, 25° C.): 99.7 % Area
- pH ([1]; Hydroxide Buffer, 1 Wk, 25° C.): 1.4
- Appearance ([1]; Hydroxide Buffer, 1 Wk, 40° C.): No change
- Purity (% Area) ([1]; Hydroxide Buffer, 1 Wk, 40° C.): 99.8 % Area
- pH ([1]; Hydroxide Buffer, 1 Wk, 40° C.): 1.4
- Appearance ([1]; Hydroxide Buffer, 1 Wk, 60° C.): No change
- Purity (% Area) ([1]; Hydroxide Buffer, 1 Wk, 60° C.): 99.6 % Area
- pH ([1]; Hydroxide Buffer, 1 Wk, 60° C.): 1.3
- Appearance ([1]; Hydroxide Buffer, 2 Wk, 25° C.): No change
- Purity (% Area) ([1]; Hydroxide Buffer, 2 Wk, 25° C.): 99.7 % Area
- pH ([1]; Hydroxide Buffer, 2 Wk, 25° C.): 1.4
- Appearance ([1]; Hydroxide Buffer, 2 Wk, 40° C.): No change
- Purity (% Area) ([1]; Hydroxide Buffer, 2 Wk, 40° C.): 99.6 % Area
- pH ([1]; Hydroxide Buffer, 2 Wk, 40° C.): 1.4
- Appearance ([1]; Hydroxide Buffer, 2 Wk, 60° C.): No change
- Purity (% Area) ([1]; Hydroxide Buffer, 2 Wk, 60° C.): 99.6 % Area
- pH ([1]; Hydroxide Buffer, 2 Wk, 60° C.): 1.3
- Appearance ([1]; Hydroxide Buffer, 3 Wk, 25° C.): No change
- Purity (% Area) ([1]; Hydroxide Buffer, 3 Wk, 25° C.): 99.6 % Area
- pH ([1]; Hydroxide Buffer, 3 Wk, 25° C.): 1.4
- Appearance ([1]; Hydroxide Buffer, 3 Wk, 40° C.): No change
- Purity (% Area) ([1]; Hydroxide Buffer, 3 Wk, 40° C.): 99.6 % Area
- pH ([1]; Hydroxide Buffer, 3 Wk, 40° C.): 1.4
- Appearance ([1]; Hydroxide Buffer, 3 Wk, 60° C.): No change
- Purity (% Area) ([1]; Hydroxide Buffer, 3 Wk, 60° C.): 99.6 % Area
- pH ([1]; Hydroxide Buffer, 3 Wk, 60° C.): 1.3
- Appearance ([1]; Hydroxide Buffer, Time 0): Clear
- Purity (% Area) ([1]; Hydroxide Buffer, Time 0): 99.7 % Area
- pH ([1]; Hydroxide Buffer, Time 0): 1.3
- Appearance ([1]; Phosphate Buffer, 1 Wk, 25° C.): No change
- Purity (% Area) ([1]; Phosphate Buffer, 1 Wk, 25° C.): 99.4 % Area
- pH ([1]; Phosphate Buffer, 1 Wk, 25° C.): 7.0
- Appearance ([1]; Phosphate Buffer, 1 Wk, 40° C.): No change
- Purity (% Area) ([1]; Phosphate Buffer, 1 Wk, 40° C.): 95.9 % Area
- pH ([1]; Phosphate Buffer, 1 Wk, 40° C.): 7.0
- Appearance ([1]; Phosphate Buffer, 1 Wk, 60° C.): No change
- Purity (% Area) ([1]; Phosphate Buffer, 1 Wk, 60° C.): 91.3 % Area
- pH ([1]; Phosphate Buffer, 1 Wk, 60° C.): 6.9
- Appearance ([1]; Phosphate Buffer, 2 Wk, 25° C.): No change
- Purity (% Area) ([1]; Phosphate Buffer, 2 Wk, 25° C.): 95.4 % Area
- pH ([1]; Phosphate Buffer, 2 Wk, 25° C.): 6.7
- Appearance ([1]; Phosphate Buffer, 2 Wk, 40° C.): No change
- Purity (% Area) ([1]; Phosphate Buffer, 2 Wk, 40° C.): 94.4 % Area
- pH ([1]; Phosphate Buffer, 2 Wk, 40° C.): 6.7
- Appearance ([1]; Phosphate Buffer, 2 Wk, 60° C.): No change
- Purity (% Area) ([1]; Phosphate Buffer, 2 Wk, 60° C.): 83.0 % Area
- pH ([1]; Phosphate Buffer, 2 Wk, 60° C.): 6.7
- Appearance ([1]; Phosphate Buffer, 3 Wk, 25° C.): No change
- Purity (% Area) ([1]; Phosphate Buffer, 3 Wk, 25° C.): 94.9 % Area
- pH ([1]; Phosphate Buffer, 3 Wk, 25° C.): 6.7
- Appearance ([1]; Phosphate Buffer, 3 Wk, 40° C.): No change
- Purity (% Area) ([1]; Phosphate Buffer, 3 Wk, 40° C.): 91.4 % Area
- pH ([1]; Phosphate Buffer, 3 Wk, 40° C.): 6.7
- Appearance ([1]; Phosphate Buffer, 3 Wk, 60° C.): No change
- Purity (% Area) ([1]; Phosphate Buffer, 3 Wk, 60° C.): 78.8 % Area
- pH ([1]; Phosphate Buffer, 3 Wk, 60° C.): 6.8
- Appearance ([1]; Phosphate Buffer, Time 0): Clear
- Purity (% Area) ([1]; Phosphate Buffer, Time 0): 99.5 % Area
- pH ([1]; Phosphate Buffer, Time 0): 6.7
- Stability as a function of pH (in words) ([1]; pH 1.2 solution): most stable
- Stability as a function of pH (in words) ([1]; pH 6.8 buffer): least stable
- Partition coefficient P (organic phase/aqueous phase) ([2]; Sample 1: 40 mL aqueous phase, 10 mL organic phase (octanol/water)): 0.0053
- Partition coefficient P (organic phase/aqueous phase) ([2]; Sample 2: 25 mL aqueous phase, 25 mL organic phase (octanol/water)): 0.0049
- Partition coefficient P (organic phase/aqueous phase) ([2]; Sample 3: 10 mL aqueous phase, 40 mL organic phase (octanol/water)): 0.0050
- Hydrophilicity (in words) ([2]; from octanol/water P values): highly hydrophilic
Structure (SMILES): C[C@@H](N)C1CCN(S(=O)(=O)c2cccc3cnccc23)CC1.O=C(O)CCCCC(=O)O [NRL-1049 Adipate]
